Experimental data taken from ChEMBL document CHEMBL1126506, “Thoromboxane A2/endoperoxide receptor antagonists: 1,3-Dioxane and 1,3-dioxolane analogs” (Bioorg Med Chem Lett, 1993).

What was measured:
[1] = target: T1, Thromboxane A2 receptor (Homo sapiens, UniProt P21731); assay: In vitro inhibition against TXA2/PGH2 receptor using [3H]-SQ 29,548 as radioligand in human platelet membrane preparation; format: cell membranes; settings: read-out: I50
T1 sequence (P21731 whole entry): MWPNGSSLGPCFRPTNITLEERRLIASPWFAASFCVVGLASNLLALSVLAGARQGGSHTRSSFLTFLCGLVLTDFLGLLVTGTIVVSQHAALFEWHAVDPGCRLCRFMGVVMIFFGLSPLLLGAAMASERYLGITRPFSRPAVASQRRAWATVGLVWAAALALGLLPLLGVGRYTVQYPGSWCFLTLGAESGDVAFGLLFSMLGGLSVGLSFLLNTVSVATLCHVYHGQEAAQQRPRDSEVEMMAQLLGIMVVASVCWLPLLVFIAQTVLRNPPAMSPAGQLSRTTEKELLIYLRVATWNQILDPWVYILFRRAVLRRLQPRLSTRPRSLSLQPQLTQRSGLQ

[2] = target: T1, Thromboxane A2 receptor; assay: In vitro binding affinity was determined for platelet thromboxane receptor in presence of [3H]-SQ 29548
[3] = organism: Homo sapiens; assay: Tested for ability to inhibit arachidonic acid-induced and ADP-induced platelet aggregation of human platelet rich plasma; format: functional; settings: read-out: I50

Row | Structure (SMILES) | IC50 [1] [nM] | Kd [2] [nM] | IC50 [3] [nM]
1 | O=C(O)CCc1ccccc1CC1C2CCC(O2)C1c1nc(C(=O)NCCc2ccc(Cl)cc2)co1 (stereo not given) | 7 | – | –
2 | O=C(O)CCc1ccccc1CC1OCOC1c1nc(C(=O)NCCc2ccc(Cl)cc2)co1 (racemic) | 130 | 31.1 | –
3 | O=C(O)CCc1ccccc1CC1COCOC1c1nc(C(=O)NCCc2ccc(Cl)cc2)co1 (stereo not given) | 330 | 8 | –
4 | O=C(O)CCc1ccccc1CC1OCOC1c1nc(C(=O)NCCc2ccc(Cl)cc2)co1 (trans isomer; (+)) | 3100 | 45 | –
5 | O=C(O)CCc1ccccc1CC1OCOC1c1nc(C(=O)NCCc2ccc(Cl)cc2)co1 (trans isomer; (-)) | 310 | 8.2 | –
6 | CCCCCNC(=O)c1coc(C2C3CCC(O3)C2Cc2ccccc2CCC(=O)O)n1 (stereo not given) [BMS-180291] | – | – | 7
